Assay results: patent US10266548B2, “Substituted benzylindazoles for use as Bub1 kinase inhibitors in the treatment of hyperproliferative diseases” (Bayer Intellectual Property GmbH, priority 2011, dated 2019)
Where a name gives a salt, the structure may show the parent alone. Read-outs that look alike come from different tables or passages of the source.

Key:
HeLa cells = assay: Proliferation assay (HeLa cell line); assay type: cell-based
Protocol: Cultivated tumor cells (cells were ordered from ATCC, except HeLa-MaTu and HeLa-MaTu-ADR, which were ordered from EPO-GmbH, Berlin) were plated at a density of 1000 to 5000 cells/well, depending on the growth rate of the respective cell line, in a 96-well multititer plate in 200 μL of their respective growth medium supplemented 10% fetal calf serum. After 24 hours, the cells of one plate (zero-point plate) were stained with crystal violet (see below), while the medium of the other plates was replaced by fresh culture medium (200 μl), to which the test substances were added in various concentrations (0 μM, as well as in the range of 0.001-10 μM; the final concentration of the solvent dimethyl sulfoxide was 0.5%). The cells were incubated for 4 days in the presence of test substances. Cell proliferation was determined by staining the cells with crystal violet: the cells were fixed by adding 20 μl/measuring point of an 11% glutaric aldehyde solution for 15 minutes at room temperature. After three washing cycles of the fixed cells with water, the plates were dried at room temperature. The cells were stained by adding 100 μl/measuring point of a 0.1% crystal violet solution (pH 3.0). After three washing cycles of the stained cells with water, the plates were dried at room temperature. The dye was dissolved by adding 100 μl/measuring point of a 10% acetic acid solution. […] The change of cell number, in percent, was calculated by normalization of the measured values to the aborbtion values of the zero-point plate (=0%) and the absorbtion of the untreated (0 μm) cells (=100%). The IC50 values were determined by means of a 4 parameter fit using the company's own software.

[1] = molecular target: catalytic domain of human Bub1 (amino acids 704-1085) (Homo sapiens (Human), UniProt O43683); assay: Bub1 kinase assay (TR-FRET); assay type: biochemical; conditions: 10 μM ATP, 1 μM peptide substrate; read-out: Biological Assay 1: Bub1 kinase assay median IC50
Sequence of catalytic domain of human Bub1 (amino acids 704-1085) (O43683 704-1085): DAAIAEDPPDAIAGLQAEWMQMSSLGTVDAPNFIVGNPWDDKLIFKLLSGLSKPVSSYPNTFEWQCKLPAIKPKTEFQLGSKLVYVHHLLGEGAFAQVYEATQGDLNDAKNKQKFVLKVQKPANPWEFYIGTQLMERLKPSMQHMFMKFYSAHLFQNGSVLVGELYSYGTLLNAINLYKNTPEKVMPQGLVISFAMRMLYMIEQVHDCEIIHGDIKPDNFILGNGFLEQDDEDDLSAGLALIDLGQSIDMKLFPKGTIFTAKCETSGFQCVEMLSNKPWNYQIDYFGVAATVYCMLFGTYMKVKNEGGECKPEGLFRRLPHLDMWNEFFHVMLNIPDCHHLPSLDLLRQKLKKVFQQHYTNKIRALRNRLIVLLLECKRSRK
Protocol: To this end, 100-fold concentrated compound solutions (in DMSO) were previously prepared by serial dilution (1:3.4) of 2 mM stocks in a clear low volume 384-well source microtiter plate (Greiner Bio-One, Frickenhausen, Germany), from which 50 nl of compounds were transferred into a black low volume test microtiter plate from the same supplier. […] The resulting mixture (5 μl final volume) was incubated at 22° C. during 60 min., and the reaction was stopped by the addition of 5 μl of an aqueous EDTA-solution (50 mM EDTA, in 100 mM HEPES pH 7.5 and 0.2% (w/v) bovine serum albumin) which also contained the TR-FRET detection reagents (0.2 μM streptavidin-XL665 [Cisbio Bioassays, Codolet, France] and 1 nM anti-phosho-Serine antibody [Merck Millipore, cat. #35-001] and 0.4 nM LANCE EU-W1024 labeled anti-mouse IgG antibody [Perkin-Elmer, product no. AD0077, alternatively a Terbium-cryptate-labeled anti-mouse IgG antibody from Cisbio Bioassays can be used]). The stopped reaction mixture was further incubated 1 h at 22° C. in order to allow the formation of complexes between peptides and detection reagents. Subsequently, the amount of product was evaluated by measurement of the resonance energy transfer from the Eu-chelate-antlbody complex recognizing the Phosphoserlne residue to the streptavidin-XL665 bound to the biotin moiety of the peptide. […] IC50 values were calculated by fitting the normalized inhibition data to a 4-parameter logistic equation (Minimum, Maximum, IC50, Hill; Y=Max+(Min−Max)/(1+(X/IC50)Hill)) using a Bayer-proprietary analysis software.

[2] = Homo sapiens, 96 h, read-out: Biological Assay 2: Proliferation assay (HeLa cell line) median IC50
[3] = 4 days, crystal violet, read-out: Biological Assay 2: Proliferation assay (HeLa cell line) median IC50
[4] = Homo sapiens, 96 h, 4 days, crystal violet, read-out: Biological Assay 2: Proliferation assay (HeLa cell line) median IC50

SMILES	IC50 (HeLa cells; [2]) [nM]	IC50 [1] [nM]	further results
COc1ccc(Cn2nc(-c3ncc(OCC(F)(F)F)c(Nc4ccncc4)n3)c3ccccc32)cc1 [Example 11-1, 2-[1-(4-methoxybenzyl)-1H-indazol-3-yl]-N-(pyridin-4-yl)-5-(2,2,2-trifluoroethoxy)pyrimidin-4-amine]	8100	18	
COc1ccc(Cn2nc(-c3ncc(OC4CC4)c(Nc4ccncc4)n3)c3ccccc32)cc1 [Example 14-1, 5-(cyclopropyloxy)-2-[1-(4-methoxybenzyl)-1H-indazol-3-yl]-N-(pyridin-4-yl)pyrimidin-4-amine]	≥ 10000	3300	
COc1cnc(-c2nn(Cc3ccccc3C#N)c3ccccc23)nc1Nc1ccncc1 [Example 2-5-3, 2-({3-[5-methoxy-4-(pyridin-4-ylamino)pyrimidin-2-yl]-1H-indazol-1-yl}methyl) benzonitrile]	≥ 10000	21	
CCOc1cc(F)c(Cn2nc(-c3ncc(OCCO)c(Nc4ccncc4)n3)c3ccccc32)c(F)c1 [Example 15-3, 2-({2-[1-(4-ethoxy-2,6-difluorobenzyl)-1H-indazol-3-yl]-4-(pyridin-4-ylamino)pyrimidin-5-yl}oxy)ethanol hydrochloride (1:1)]		5.7	IC50 (HeLa cells; [3]): 1700 nM
O=C(O)c1cnccc1Nc1nc(-c2nn(Cc3ccccc3F)c3ccccc23)ncc1OCCO [Example 33-1, 4-({2-[1-(2-fluorobenzyl)-1H-indazol-3-yl]-5-(2-hydroxyethoxy)pyrimidin-4-yl}amino)pyridine-3-carboxylic acid hydrochloride (1:1)]	≥ 10000	11	
COc1cnc(-c2nn(Cc3c(F)cc(OCCOC(C)=O)cc3F)c3ccccc23)nc1Nc1ccncc1 [Example 2-51-1, 2-[3,5-difluoro-4-({3-[5-methoxy-4-(pyridin-4-ylamino)pyrimidin-2-yl]-1H-indazol-1-yl}methyl)phenoxy]ethyl acetate]	2700	10	
NS(=O)(=O)COc1cnc(-c2nn(Cc3ccccc3F)c3ccccc23)nc1Nc1ccncc1 [Example 4-3, 1-({2-[1-(2-fluorobenzyl)-1H-indazol-3-yl]-4-(pyridin-4-ylamino)pyrimidin-5-yl}oxy)methane-sulfonamide]	14000	7.5	
NC(=O)c1cnc(-c2nn(Cc3ccccc3F)c3ccccc23)nc1Nc1ccncc1 [Example 32-1, 2-[1-(2-fluorobenzyl)-1H-indazol-3-yl]-4-(pyridin-4-ylamino)pyrimidine-5-carboxamide]	≥ 10000	120	
CCOc1cc(F)c(Cn2nc(-c3ncc(OCC[S+](C)[O-])c(Nc4ccncc4)n3)c3ccccc32)c(F)c1 (single isomer, unassigned) [Example 36-1, 2-[1-(4-ethoxy-2,6-difluorobenzyl)-1H-indazol-3-yl]-5-[2-(methylsulfinyl)ethoxy]-N-(pyridin-4-yl)pyrimidin-4-amine]			IC50 (HeLa cells; [3]): 3300 nM
CCOc1cc(F)c(Cn2nc(-c3ncc(OCCOCCO)c(Nc4ccncc4)n3)c3ccccc32)c(F)c1 [Example 4-17, 2-[2-({2-[1-(4-ethoxy-2,6-difluorobenzyl)-1H-indazol-3-yl]-4-(pyridin-4-ylamino)pyrimidin-5-yl}oxy)ethoxy] ethanol]	4800		
CCOc1cc(F)c(Cn2nc(-c3ncc(OCCN)c(Nc4ccncc4)n3)c3ccccc32)c(F)c1 [Example 38-1, 5-(2-aminoethoxy)-2-[1-(4-ethoxy-2,6-difluorobenzyl)-1H-indazol-3-yl]-N-(pyridin-4-yl)pyrimidin-4-amine]	1400		
CCOc1cc(F)c(Cn2nc(-c3ncc(OCC[S+](C)[O-])c(Nc4ccncc4)n3)c3ccccc32)c(F)c1 (single isomer, unassigned) [Example 36-3, 2-[1-(4-ethoxy-2,6-difluorobenzyl)-1H-indazol-3-yl]-5-[2-(methylsulfinyl)ethoxy]-N-(pyridin-4-yl)pyrimidin-4-amine]			IC50 (HeLa cells; [3]): 430 nM
CCOc1cc(F)c(Cn2nc(-c3ncc(OCCSC)c(Nc4ccncc4)n3)c3ccccc32)c(F)c1 [Example 4-16, 2-[1-(4-ethoxy-2,6-difluorobenzyl)-1H-indazol-3-yl]-5-[2-(methylsulfanyl)ethoxy]-N-(pyridin-4-yl)pyrimidin-4-amine]			IC50 (HeLa cells; [4]): 4400 nM
CCOc1cc(F)c(Cn2nc(-c3ncc(OCCN4CCOCC4)c(Nc4ccncc4)n3)c3ccccc32)c(F)c1 [Example 4-12, 2-[1-(4-ethoxy-2,6-difluorobenzyl)-1H-indazol-3-yl]-5-[2-(morpholin-4-yl)ethoxy]-N-(pyridin-4-yl)pyrimidin-4-amine]			IC50 (HeLa cells; [4]): 9000 nM
OC[C@@H](O)COc1cnc(-c2nn(Cc3ccccc3F)c3ccccc23)nc1Nc1ccncc1 [Example 15-6, (2R)-3-({2-[1-(2-fluorobenzyl)-1H-indazol-3-yl]-4-(pyridin-4-ylamino)pyrimidin-5-yl}oxy)propane-1,2-diol hydrochloride (1:1)]			IC50 (HeLa cells; read-out: Biological Assay 2: Proliferation assay (HeLa cell line) median IC50, 4 days, crystal violet): ≥ 10000 nM
CCOc1cc(F)c(Cn2nc(-c3ncc(OCC(=O)N4CC(F)(F)C4)c(Nc4ccncc4)n3)c3ccccc32)c(F)c1 [Example 4-15, 1-(3,3-difluoroazetidin-1-yl)-2-({2-[1-(4-ethoxy-2,6-difluorobenzyl)-1H-indazol-3-yl]-4-(pyridin-4-ylamino)pyrimidin-5-yl}oxy)ethanone]			IC50 (HeLa cells; [4]): 3900 nM
CCOc1cc(F)c(Cn2nc(-c3ncc(OC)c(Nc4ccncc4C#N)n3)c3ccccc32)c(F)c1 [Example 24-5, 4-({2-[1-(4-ethoxy-2,6-difluorobenzyl)-1H-indazol-3-yl]-5-methoxypyrimidin-4-yl}amino)pyridine-3-carbonitrile]		11	
COc1cnc(-c2nn(Cc3ccc(C(=O)O)cc3Cl)c3ccccc23)nc1Nc1ccncc1 [Example 28-1, 3-chloro-4-({3-[5-methoxy-4-(pyridin-4-ylamino)pyrimidin-2-yl]-1H-indazol-1-yl}methyl)benzoic acid]		3700	
CCOc1cc(O)c(Cn2nc(-c3ncc(OC)c(Nc4cc(C)nc(C)c4)n3)c3ccccc32)c(F)c1 [Example 24-6, 2-[(3-[4-[(2,6-dimethylpyridin-4-yl)amino]-5-methoxypyrimidin-2-yl}-1H-indazol-1-yl)methyl]-5-ethoxy-3-fluorophenol]		940	
CCOc1cc(F)c(Cn2nc(-c3ncc(OCC[S+](C)[O-])c(Nc4ccncc4)n3)c3ccccc32)c(F)c1 (single isomer, unassigned) [Example 36-2, 2-[1-(4-ethoxy-2,6-difluorobenzyl)-1H-indazol-3-yl]-5-[2-(methylsulfinyl)ethoxy]-N-(pyridin-4-yl)pyrimidin-4-amine]			IC50 (HeLa cells; [3]): 440 nM
COc1cnc(-c2nn(Cc3ccccc3Cl)c3ccccc23)nc1N(Cc1ccccc1Cl)c1ccncc1 [Example 2-10-2, N-(2-chlorobenzyl)-2-[1-(2-chlorobenzyl)-1H-indazol-3-yl]-5-methoxy-N-(pyridin-4-yl)pyrimidin-4-amine]		1200	
CC(C)(C)OC(=O)NCCOCCOc1cnc(-c2nn(Cc3ccccc3F)c3ccccc23)nc1Nc1ccncc1 [Example 4-20, tert-butyl {2-[2-({2-[1-(2-fluorobenzyl)-1H-indazol-3-yl]-4-(pyridin-4-ylamino)pyrimidin-5-yl}oxy)ethoxy]ethyl}carbamate]		210	
COC(=O)c1cnccc1Nc1nc(-c2nn(Cc3ccccc3F)c3ccccc23)ncc1OC [Example 24-2, methyl 4-({2-[1-(2-fluorobenzyl)-1H-indazol-3-yl]-5-methoxypyrimidin-4-yl}amino)pyridine-3-carboxylate]		20000	
